What was measured:
[1] = tested on: CYP2C8; design: method as in PMID 21838784; conditions: cited from earlier work
[2] = tested on: CYP3A rather than CYP2C8; design: method as in PMID 11136296; conditions: cited from earlier work
[3] = Part B safety: adverse events (NCI CTCAE v5.0), safety population; format: in vivo, human (patients with solid tumors); conditions: by treatment period
Experimental: Part B of the core phase assessed the effect of the strong CYP3A inhibitor itraconazole on the PK of pamiparib in patients with solid tumors. All patients received a single dose of oral pamiparib 20 mg on days 1 and 7, and oral itraconazole 200 mg QD on days 3–8. The 20-mg pamiparib dose, the lowest dose strength available and one-sixth of the highest phase 1 dose (120 mg), was deemed sufficient to cover the plasma exposure increase due to complete blockade of CYP3A by itraconazole. Part B patients fasted for at least 8 h before and at least 4 h after pamiparib administration, except for day 7 upon which itraconazole administration occurred ~ 30 min after completing a meal and pamiparib administration followed within 5 min of itraconazole administration. Blood samples for PK analysis were obtained on days 1 and 7 at the same time points listed above for Part A. After completing the core phase in Part A and Part B, patients were offered participation in the extension phase, in which they were to receive pamiparib PO BID in 28-day cycles until disease progression, unacceptable toxicity, withdrawal of consent, or any other reason for discontinuation.
(§1) Adverse events (AEs) were monitored throughout the study and were graded according to the National Cancer Institute Common Terminology Criteria v5.0.
(§2) The safety population included all patients who received at least one dose of pamiparib. […] Plasma PK parameters were calculated from pamiparib concentration–time profiles using standard noncompartmental methods. PK parameters were calculated using Phoenix WinNonlin v6.4 or higher (Certara, Princeton, NJ, USA). […] Data for each treatment part were analyzed separately. Log-transformed AUC and Cmax values were analyzed using a linear mixed-effect model analysis assuming a fixed effect for treatment and a random effect for patients. The study design called for ~ 24 patients (12 in each part) to be enrolled to ensure at least 20 (10 in each part) completed the study. This sample size was based on the precedent set by other PK studies of a similar nature and was not based on power calculations.

[4] = Part A safety: adverse events (NCI CTCAE v5.0), safety population; format: in vivo, human (patients with advanced solid tumors); conditions: Part A (N = 12); by treatment period
Experimental: This was an open-label, parallel-group, phase 1 study consisting of a 2-part core phase and an extension phase. Only results for the core phases are reported herein (Supplementary Fig. 1). […] Blood samples for PK analysis were obtained on days 1 and 10 at predose, and at 0.5, 1, 2, 4, 6, 9, 12, 24, and 48 h postdose. Pamiparib plasma concentrations were determined using a validated liquid chromatography–mass spectrometry/mass spectrometry method (lower limit of quantification 1.0 ng/mL) at Covance Laboratory Services (Salt Lake City, Utah).
as §1, §2

[5] = design: method as in PMID 27745744; conditions: cited from earlier work
[6] = tested on: P-glycoprotein; design: method as in PMID 32652442; conditions: cited from earlier work
[7] = Part B (N = 13; N = 12 for pamiparib with itraconazole)
[8] = olaparib with itraconazole administration

CCC(C)n1ncn(-c2ccc(N3CCN(c4ccc(OCC5COC(Cn6cncn6)(c6ccc(Cl)cc6Cl)O5)cc4)CC3)cc2)c1=O (centres unmarked) [Itraconazole, itraconazole, reference compound]
in vivo CYP2C8 inhibition ([1]; inferred from montelukast clinical study): negligible | specificity of inhibition for CYP3A rather than CYP2C8 [2]: ~ 100 fold | All TEAEs (any grade), patients [3, 7]: 2 (15.4) n (%) | Any treatment-related TEAE, patients [3, 7]: 1 (7.7) n (%) | Grade >= 3 TEAE, patients [3, 7]: 1 (7.7) n (%) | Serious AE, patients [3, 7]: 1 (7.7) n (%) | Treatment-related TEAE related to itraconazole only, patients [3, 7]: 0 n (%) | Treatment-related TEAE related to pamiparib only, patients [3, 7]: 0 n (%) | Serious AE related to both, patients ([3]; Part B): 0 n (%) | Serious AE related to itraconazole only, patients ([3]; Part B): 0 n (%) | Serious AE related to pamiparib only, patients ([3]; Part B): 0 n (%)

CO[C@H]1/C=C/O[C@@]2(C)Oc3c(C)c(O)c4c(O)c(c(/C=N/N5CCN(C)CC5)c(O)c4c3C2=O)NC(=O)/C(C)=C\C=C\[C@H](C)[C@H](O)[C@@H](C)[C@@H](O)[C@@H](C)[C@H](OC(C)=O)[C@@H]1C [Rifampin, rifampin, reference compound]
Any treatment-related TEAE, patients [4]: 1 (8.3) n (%) | Grade >= 3 TEAE, patients [4]: 0 n (%) | Serious AE, patients [4]: 0 n (%) | Treatment-related TEAE related to both, patients [4]: 0 n (%) | Treatment-related TEAE related to pamiparib only, patients [4]: 0 n (%) | Treatment-related TEAE related to rifampin only, patients [4]: 1 (8.3) n (%)

O=C(c1cc(Cc2n[nH]c(=O)c3ccccc23)ccc1F)N1CCN(C(=O)C2CC2)CC1 [olaparib]
AUC treatment ratio with itraconazole [5, 8]: 2.70 | Cmax treatment ratio with itraconazole [5, 8]: 1.42 | AUC increase with itraconazole observed in one patient ([5]; olaparib with itraconazole, one patient): sevenfold | P-glycoprotein substrate status [6]: substrate of P-glycoprotein

CNCc1ccc(-c2[nH]c3cc(F)cc4c3c2CCNC4=O)cc1 [rucaparib]
P-glycoprotein substrate status [6]: substrate of P-glycoprotein

Cn1ncnc1[C@H]1c2n[nH]c(=O)c3cc(F)cc(c23)N[C@@H]1c1ccc(F)cc1 [talazoparib]
P-glycoprotein substrate status [6]: substrate of P-glycoprotein

CC(C)(O)c1ccccc1CC[C@@H](SCC1(CC(=O)O)CC1)c1cccc(/C=C/c2ccc3ccc(Cl)cc3n2)c1 [montelukast]
effect of CYP2C8 inhibitor gemfibrozil on montelukast AUC [1]: markedly increased | effect of itraconazole coadministration on montelukast PK [1]: no significant effects

C[C@]1(c2nc3c(C(N)=O)cccc3[nH]2)CCCN1 [veliparib]
P-glycoprotein substrate status [6]: substrate of P-glycoprotein

Reference: publication PMC8149352 (Cancer Chemotherapy and Pharmacology, 2021)
